Source: patent US20050169839A1, “Biomarker for efficacy of appetite suppressant drugs” (priority 2002, published 2005)
“And” between values parts separate entries of the source, which are not always exact repeats. Equal entries are not always repeated.

Columns and labels:
Assay type in all cases: in vivo, rat
[1] = Body weight change after 4-day dosing in male DIO rats; conditions: for BW change (g), mean: group mean
Description: (§1) To determine if plasma AGRP level correlates with a subject's intake of MC4R agonists given as appetite suppressants, we measured plasma AGRP level in DIO rats after treatment with specific MC4 agonists. Male DIO rats were treated either with an MC4 agonist (15 mg/kg, po, b.i.d., for 4 days, n=7) or with vehicle (n=7). The specific MC4 agonist used for treatment was (aR)-N,N-bis(4-[(tert-butylamino)carbonyl]-4-cyclohexyl 1-{4-fluoro-N-[(2-methyl-2-azabicyclo[2.2.1]hept-6-yl)carbonyl]-D-phenylalanyl}piperidin-2-yl)-4-fluoro-N-[(2-methyl-2-azabicyclo[2.2.1]hept-6-yl)carbonyl]-D-phenylalaninamide hydrochloride (hereinafter Compound A).
(§2) After 4 days of treatment with Compound A or with vehicle, plasma samples were obtained from each rat. Plasma AGRP level was thereafter determined using an RIA Kit from Phoenix Pharmaceuticals, Inc. (Belmont, Calif.).
(§3) In a different experiment, groups of male DIO rats were treated either with a second MC4R agonist (20 mg/kg, po, b.i.d., for 4 days, n=6) or with vehicle (n=5). In this study, the specific MC4 agonist used was 4-[2-methylaminocarbonyl-4-flurorphenyl]-1-{[(3S, 4R)-1-tert-butyl-4-(2,4-difluorophenyl)-pyrrolidin-3-yl]carbonyl}piperidine (hereinafter Compound B). […] For each treatment group, plasma samples were collected after 4 days of treatment and AGRP level was measured using an RIA Kit from Phoenix Pharmaceuticals, Inc. (Belmont, Calif.).
as §2, with “Male DIO rats were treated either with S(+) fenflurarnine (3 mg/kg, po, b.i.d., for 4 days, n=7) or with vehicle (n=5). […] After” for “After”

plasma AGRP = assay: Plasma AGRP level (RIA) after 4-day dosing in male DIO rats; conditions: for AGRP (pg/0.1 mL), mean / AGRP (pg/0.1 mL): plasma; for AGRP (pg/0.1 mL), mean: group mean
Text: A human AGRP RIA assay kit (Phoenix Pharmaceuticals, Inc., Belmont, Calif.), a human leptin RIA kit (Linco Research, Inc., St. Charles, Mo.), and a human specific insulin RIA kit (Linco Research, Inc., St. Charles, Mo.), were used to measure AGRP, leptin, and insulin, respectively in human plasma samples. A Phoenix AGRP RIA kit, which contains synthetic human AGRP (aa83-132) as a standard, was also used to measure AGRP level in rat plasma samples. […] Statistical comparison is based on one-way ANOVA, t or paired t test.
as §1, §2, §3
as §2, with “Male DIO rats were treated either with S(+) fenflurarnine (3 mg/kg, po, b.i.d., for 4 days, n=7) or with vehicle (n=5). […] After” for “After”

[2] = Body weight change after 4-day sibutramine dosing in male Sprague-Dawley rats; conditions: sibutramine 3 mg/kg oral once daily for 4 days; mean±standard error; n=7; vehicle gained 23.6±4.16 g
Description: Male Sprague-Dawley rats (Charles River Laboratories, Wilmington, Mass.), which were 71 days of age at the beginning of the experiment, were treated with either vehicle alone (0.5% methyl cellulose; n=5 rats) or sibutramine (3 mg/kg of body weight in 0.5% methyl cellulose; n=7 rats). The treatment regime consisted of a single daily oral dose of the test compound every day for 4 days.
The body weight of each rat was measured before commencement of the experiment and at its conclusion. After 4 days of treatment with either test compound, plasma samples of each rat were collected for the measurement of AGRP level. […] The AGRP kit contains a synthetic human AGRP fragment (aa83-132) as the standard. […] For AGRP RIA, 100 μl rat plasma was used per assay. […] Statistical comparison is based on unpaired t test.

[3] = Compound B 20 mg/kg po b.i.d. 4 days, n=6
[4] = Compound B 20 mg/kg po b.i.d. 4 days, individual rats 1-6
[5] = S(+) fenfluramine 3 mg/kg po b.i.d. 4 days, n=7
[6] = S(+) fenfluramine 3 mg/kg po b.i.d. 4 days, individual rats 1-7
[7] = Compound A 15 mg/kg po b.i.d. 4 days, n=7
[8] = Compound A 15 mg/kg po b.i.d. 4 days, individual rats 1-7, hydrochloride, 15 mg/kg

For `CNC(=O)c1cc(F)ccc1C1CCN(C(=O)[C@@H]2CN(C(C)(C)C)C[C@H]2c2ccc(F)cc2F)CC1` [Compound B, 4-[2-methylaminocarbonyl-4-flurorphenyl]-1-{[(3S, 4R)-1-tert-butyl-4-(2,4-difluorophenyl)-pyrrolidin-3-yl]carbonyl}piperidine], the “effect on body weight (in words)” value ([1]; Compound B 20 mg/kg po b.i.d. 4 days, DIO rats) was “not effective at reducing body weight”, the “BW change (g), mean” value [1, 3] was 17.5 g and the “BW change” value [1, 4] was 25 g (2×) and 5 g and 23 g and 15 g and 12 g. The body weight gained ([1]; Compound B 20 mg/kg po b.i.d. 4 days, mean±standard error, vehicle gained 14.2±1.9 g) was 17.5 ± 3.3 g, the “AGRP (pg/0.1 mL), mean” value (plasma AGRP; [3]) was 48.4 pg/0.1 mL and the “AGRP (pg/0.1 mL)” value (plasma AGRP; [4]) was 45.6 pg/0.1 mL and 26 pg/0.1 mL and 39.8 pg/0.1 mL and 66.9 pg/0.1 mL and 47 pg/0.1 mL and 64.8 pg/0.1 mL. The “Plasma AGRP level” value (plasma AGRP; Compound B 20 mg/kg po b.i.d. 4 days, vehicle 45.8±14) was 48.4±6.3 pg/100 μl plasma.

With `CCN[C@@H](C)Cc1cccc(C(F)(F)F)c1` [S(+) fenfluramine, reference compound] the “BW change (g), mean” value [1, 5] was -16.3 g, the “BW change” value [1, 6] was −25 g and −13 g (2×) and −10 g (2×) and −15 g and −28 g and the body weight lost ([1]; S(+) fenfluramine 3 mg/kg po b.i.d. 4 days, mean±standard error, vehicle gained 14.2±1.9 g) was 16.3 ± 2.7 g. For the same compound, the “AGRP (pg/0.1 mL), mean” value (plasma AGRP; [5]) was 48.3 pg/0.1 mL, the “AGRP (pg/0.1 mL)” value (plasma AGRP; [6]) was 39.3 pg/0.1 mL and 22.8 pg/0.1 mL and 57.8 pg/0.1 mL and 62.6 pg/0.1 mL and 94.4 pg/0.1 mL and 16.9 pg/0.1 mL and 44.6 pg/0.1 mL and the “average plasma AGRP level” value (plasma AGRP; S(+) fenfluramine 3 mg/kg po b.i.d. 4 days, vehicle 45.8±14) was 48.3±9.9 pg/100 μl plasma.

With `CC(C)CC(N(C)C)C1(c2ccc(Cl)cc2)CCC1.Cl.O` (centres unmarked) [sibutramine, N-{1-[1-(4-chlorophenyl)cyclobutyl]-3-methylbutyl}-N,N-dimethylamine hydrochloride monohydrate] the body weight gained [2] was 10 ± 4.76 g.

In the case of “(aR)-N,N-bis(4-[(tert-butylamino)carbonyl]-4-cyclohexyl 1-{4-fluoro-N-[(2-methyl-2-azabicyclo[2.2.1]hept-6-yl)carbonyl]-D-phenylalanyl}piperidin-2-yl)-4-fluoro-N-[(2-methyl-2-azabicyclo[2.2.1]hept-6-yl)carbonyl]-D-phenylalaninamide hydrochloride [Compound A]”, the “BW change (g), mean” value [1, 7] is reported as -4.9 g, the “BW change” value [1, 8] is reported as 2 g and 1 g and −2 g and −5 g and −7 g (2×) and −16 g and the body weight lost ([1]; Compound A 15 mg/kg po b.i.d. 4 days, mean±standard error, vehicle gained 3.7±1.4 g) is reported as 4.9 ± 2.3 g. For the same compound, the “Plasma AGRP level” value (plasma AGRP; Compound A 15 mg/kg po b.i.d. 4 days, mean±standard error) was 36.2±2.5 pg/100 μl plasma, the “AGRP (pg/0.1 mL), mean” value (plasma AGRP; [7]) was 36.2 pg/0.1 mL and the “AGRP (pg/0.1 mL)” value (plasma AGRP; [8]) was 35.8 pg/0.1 mL and 42.2 pg/0.1 mL and 38.1 pg/0.1 mL and 46.2 pg/0.1 mL and 33 pg/0.1 mL and 26.5 pg/0.1 mL and 31.6 pg/0.1 mL.
